Source: PubChem BioAssay (NCI)
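Results reflect a 48-hour exposure of cells in 96-well plates to compound at five concentrations. GI50 is the concentration that inhibits growth by half. TGI is the concentration that stops growth completely.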

Legend:
Test in all cases: NCI tumour cell line growth inhibition, 48 h
UACC-62 melanoma = system: UACC-62 melanoma
RXF 393 renal = system: RXF 393 renal
COLO 205 colon = system: COLO 205 colon
NCI-H226 lung = system: NCI-H226 lung
SK-MEL-5 melanoma = system: SK-MEL-5 melanoma
NCI-H522 lung = system: NCI-H522 lung
SNB-78 CNS = system: SNB-78 CNS
A498 renal = system: A498 renal
SW-620 colon = system: SW-620 colon
IGROV1 ovarian = system: IGROV1 ovarian
KM12 colon = system: KM12 colon
HOP-62 NSCLC = system: HOP-62 NSCLC
LXFL 529 NSCLC = system: LXFL 529 NSCLC
HCT-15 colon = system: HCT-15 colon
CCRF-CEM leukemia = system: CCRF-CEM leukemia
HT29 colon = system: HT29 colon
KM20L2 colon = system: KM20L2 colon
DMS 273 small cell lung = system: DMS 273 small cell lung
TK-10 renal = system: TK-10 renal
OVCAR-4 ovarian = system: OVCAR-4 ovarian
DLD-1 colon = system: DLD-1 colon
SK-MEL-2 melanoma = system: SK-MEL-2 melanoma
MALME-3M melanoma = system: MALME-3M melanoma
SF-268 CNS = system: SF-268 CNS
LOX IMVI melanoma = system: LOX IMVI melanoma
UACC-257 melanoma = system: UACC-257 melanoma
UO-31 renal = system: UO-31 renal
786-0 renal = system: 786-0 renal
RXF-631 renal = system: RXF-631 renal
SF-539 CNS = system: SF-539 CNS
HOP-18 NSCLC = system: HOP-18 NSCLC
NCI-H23 lung = system: NCI-H23 lung
OVCAR-5 ovarian = system: OVCAR-5 ovarian
SK-MEL-28 melanoma = system: SK-MEL-28 melanoma
A549 NSCLC = system: A549 NSCLC
NCI-H460 lung = system: NCI-H460 lung
HL-60(TB) leukemia = system: HL-60(TB) leukemia
OVCAR-8 ovarian = system: OVCAR-8 ovarian
SF-295 CNS = system: SF-295 CNS
SNB-19 CNS = system: SNB-19 CNS
SNB-75 CNS = system: SNB-75 CNS
CAKI-1 renal = system: CAKI-1 renal
MOLT-4 leukemia = system: MOLT-4 leukemia
ACHN renal = system: ACHN renal
OVCAR-3 ovarian = system: OVCAR-3 ovarian
SR leukemia = system: SR leukemia
M19-MEL melanoma = system: M19-MEL melanoma
K-562 leukemia = system: K-562 leukemia
HOP-92 NSCLC = system: HOP-92 NSCLC
M14 melanoma = system: M14 melanoma
SN12C renal = system: SN12C renal
HCT-116 colon = system: HCT-116 colon
SK-OV-3 ovarian = system: SK-OV-3 ovarian
EKVX NSCLC = system: EKVX NSCLC
HCC-2998 colon = system: HCC-2998 colon
DMS 114 small cell lung = system: DMS 114 small cell lung
U251 CNS = system: U251 CNS
XF 498 CNS = system: XF 498 CNS
RPMI-8226 leukemia = system: RPMI-8226 leukemia

Cc1ccc(-n2c(O)c(C=N)c(=O)n(-c3ccc(C)cc3)c2=O)cc1
TGI (UACC-62 melanoma): > 100000 nM
TGI (RXF 393 renal): > 100000 nM
TGI (COLO 205 colon): > 100000 nM
TGI (NCI-H226 lung): > 100000 nM
TGI (SK-MEL-5 melanoma): > 100000 nM
TGI (NCI-H522 lung): > 100000 nM
TGI (SNB-78 CNS): > 100000 nM
TGI (A498 renal): > 100000 nM
TGI (SW-620 colon): > 100000 nM
TGI (IGROV1 ovarian): > 100000 nM
TGI (KM12 colon): > 100000 nM
TGI (HOP-62 NSCLC): > 100000 nM
TGI (LXFL 529 NSCLC): > 100000 nM
TGI (HCT-15 colon): > 100000 nM
TGI (CCRF-CEM leukemia): > 100000 nM
TGI (HT29 colon): > 100000 nM
TGI (KM20L2 colon): > 100000 nM
TGI (DMS 273 small cell lung): > 100000 nM
TGI (TK-10 renal): > 100000 nM
TGI (OVCAR-4 ovarian): > 100000 nM
TGI (DLD-1 colon): > 100000 nM
TGI (SK-MEL-2 melanoma): > 100000 nM
TGI (MALME-3M melanoma): > 100000 nM
TGI (SF-268 CNS): > 100000 nM
TGI (LOX IMVI melanoma): > 100000 nM
TGI (UACC-257 melanoma): > 100000 nM
TGI (UO-31 renal): > 100000 nM
TGI (786-0 renal): > 100000 nM
TGI (RXF-631 renal): > 100000 nM
TGI (SF-539 CNS): > 100000 nM
TGI (HOP-18 NSCLC): > 100000 nM
TGI (NCI-H23 lung): > 100000 nM
TGI (OVCAR-5 ovarian): > 100000 nM
TGI (SK-MEL-28 melanoma): > 100000 nM
TGI (A549 NSCLC): > 100000 nM
TGI (NCI-H460 lung): > 100000 nM
TGI (HL-60(TB) leukemia): > 100000 nM
TGI (OVCAR-8 ovarian): > 100000 nM
TGI (SF-295 CNS): > 100000 nM
TGI (SNB-19 CNS): > 100000 nM
TGI (SNB-75 CNS): 75200 nM
TGI (CAKI-1 renal): > 100000 nM
TGI (MOLT-4 leukemia): > 100000 nM
TGI (ACHN renal): > 100000 nM
TGI (OVCAR-3 ovarian): > 100000 nM
TGI (SR leukemia): > 100000 nM
TGI (M19-MEL melanoma): > 100000 nM
TGI (K-562 leukemia): > 100000 nM
TGI (HOP-92 NSCLC): 95900 nM
TGI (M14 melanoma): > 100000 nM
TGI (SN12C renal): > 100000 nM
TGI (HCT-116 colon): > 100000 nM
TGI (SK-OV-3 ovarian): 78800 nM
TGI (EKVX NSCLC): > 100000 nM

CCC[CH2][Sn]1([CH2]CCC)[O]CC(CN2CCCCC2)[O]1 (stereo not given)
GI50 (UACC-62 melanoma): 301 nM
TGI (UACC-62 melanoma): 1300 nM
GI50 (RXF 393 renal): 299 nM
TGI (RXF 393 renal): 542 nM
GI50 (COLO 205 colon): 273 nM
TGI (COLO 205 colon): 883 nM
GI50 (NCI-H226 lung): 1630 nM
TGI (NCI-H226 lung): 3120 nM
GI50 (SK-MEL-5 melanoma): 582 nM
TGI (SK-MEL-5 melanoma): 1910 nM
GI50 (NCI-H522 lung): 48.7 nM
TGI (NCI-H522 lung): 176 nM
GI50 (SNB-78 CNS): 266 nM
TGI (SNB-78 CNS): 761 nM
GI50 (A498 renal): 276 nM
TGI (A498 renal): 785 nM
GI50 (SW-620 colon): 137 nM
TGI (SW-620 colon): 388 nM
GI50 (IGROV1 ovarian): 1120 nM
TGI (IGROV1 ovarian): 2410 nM
GI50 (KM12 colon): 634 nM
TGI (KM12 colon): 2100 nM
GI50 (HOP-62 NSCLC): 1610 nM
TGI (HOP-62 NSCLC): 3050 nM
GI50 (LXFL 529 NSCLC): 76.2 nM
TGI (LXFL 529 NSCLC): 263 nM
GI50 (HCT-15 colon): 460 nM
TGI (HCT-15 colon): 1670 nM
GI50 (CCRF-CEM leukemia): 117 nM
TGI (CCRF-CEM leukemia): 600 nM
GI50 (HT29 colon): 569 nM
TGI (HT29 colon): 1880 nM
GI50 (HCC-2998 colon): 486 nM
TGI (HCC-2998 colon): 1870 nM
GI50 (KM20L2 colon): 852 nM
TGI (KM20L2 colon): 2210 nM
GI50 (DMS 273 small cell lung): 271 nM
TGI (DMS 273 small cell lung): 1250 nM
GI50 (DMS 114 small cell lung): 156 nM
TGI (DMS 114 small cell lung): 654 nM
GI50 (TK-10 renal): 242 nM
TGI (TK-10 renal): 897 nM
GI50 (OVCAR-4 ovarian): 226 nM
TGI (OVCAR-4 ovarian): 1430 nM
GI50 (DLD-1 colon): 394 nM
TGI (DLD-1 colon): 1850 nM
GI50 (SK-MEL-2 melanoma): 185 nM
TGI (SK-MEL-2 melanoma): 422 nM
GI50 (MALME-3M melanoma): 62.8 nM
TGI (MALME-3M melanoma): 616 nM
GI50 (SF-268 CNS): 295 nM
TGI (SF-268 CNS): 1340 nM
GI50 (LOX IMVI melanoma): 179 nM
TGI (LOX IMVI melanoma): 485 nM
GI50 (U251 CNS): 285 nM
TGI (U251 CNS): 1110 nM
GI50 (XF 498 CNS): 121 nM
TGI (XF 498 CNS): 264 nM
GI50 (UACC-257 melanoma): 309 nM
TGI (UACC-257 melanoma): 1050 nM
GI50 (UO-31 renal): 954 nM
TGI (UO-31 renal): 2140 nM
GI50 (786-0 renal): 291 nM
TGI (786-0 renal): 1010 nM
GI50 (RXF-631 renal): 124 nM
TGI (RXF-631 renal): 248 nM
GI50 (SF-539 CNS): 391 nM
TGI (SF-539 CNS): 1500 nM
GI50 (NCI-H23 lung): 137 nM
TGI (NCI-H23 lung): 343 nM
GI50 (OVCAR-5 ovarian): 1530 nM
TGI (OVCAR-5 ovarian): 2860 nM
GI50 (SK-MEL-28 melanoma): 685 nM
TGI (SK-MEL-28 melanoma): 1930 nM
GI50 (A549 NSCLC): 1990 nM
TGI (A549 NSCLC): 3810 nM
GI50 (NCI-H460 lung): 1100 nM
TGI (NCI-H460 lung): 2290 nM
GI50 (HL-60(TB) leukemia): 68.3 nM
TGI (HL-60(TB) leukemia): 337 nM
GI50 (OVCAR-8 ovarian): 283 nM
TGI (OVCAR-8 ovarian): 873 nM
GI50 (RPMI-8226 leukemia): 136 nM
TGI (RPMI-8226 leukemia): 484 nM
GI50 (SF-295 CNS): 309 nM
TGI (SF-295 CNS): 1320 nM
GI50 (SNB-19 CNS): 330 nM
TGI (SNB-19 CNS): 948 nM
GI50 (SNB-75 CNS): 197 nM
TGI (SNB-75 CNS): 731 nM
GI50 (CAKI-1 renal): 51.2 nM
TGI (CAKI-1 renal): 333 nM
GI50 (MOLT-4 leukemia): 158 nM
TGI (MOLT-4 leukemia): 646 nM
GI50 (ACHN renal): 269 nM
TGI (ACHN renal): 808 nM
GI50 (OVCAR-3 ovarian): 271 nM
TGI (OVCAR-3 ovarian): 821 nM
GI50 (SR leukemia): 199 nM
TGI (SR leukemia): 619 nM
GI50 (M19-MEL melanoma): 477 nM
TGI (M19-MEL melanoma): 1730 nM
GI50 (K-562 leukemia): 109 nM
TGI (K-562 leukemia): 744 nM
GI50 (HOP-92 NSCLC): 193 nM
TGI (HOP-92 NSCLC): 885 nM
GI50 (M14 melanoma): 336 nM
TGI (M14 melanoma): 1330 nM
GI50 (SN12C renal): 356 nM
TGI (SN12C renal): 1430 nM
GI50 (HCT-116 colon): 892 nM
TGI (HCT-116 colon): 2130 nM
GI50 (SK-OV-3 ovarian): 1300 nM
TGI (SK-OV-3 ovarian): 2810 nM
GI50 (EKVX NSCLC): 284 nM
TGI (EKVX NSCLC): 1920 nM
